# Measurements reported in patent US5910509A, “Antimicrobial agent for agriculture” (priority 1996, dated 1999).
# Like-named read-outs stand apart in the source and are kept apart here.
# What was measured:
# Fungal cells = assay: Disk diffusion assay for antimicrobial activity; assay type: cell-based; settings: 37° C., 24 hours; for zone appearance (clear = fungicidal, hazy = fungistatic): disk diffusion; for zone of growth inhibition diameter: positive control disks 2.5 and 10 μg; for zone of inhibition at 100 µg/disc: 100 μg per 6 mm disk, Sabouraud Dextrose Agar, read-out: zone of growth inhibition diameter
# Description: (§1) Fungal cells were grown overnight from a single colony in 2-5 ml Sabouraud Dextrose Broth at 37° C. 1-5×10^6 were spread onto Sabouraud Dextrose Agar plates (Difco, Detroit, Mich.). Sterile 6 mm filter disks were evenly spaced with at least about 22 mm separation on the plates. To each disk, 100 μg of a compound to be tested was applied in 5-10 μl DMSO. On each plate, two disks containing 2.5 and 10 μg, respectively, of Amphotericin B (Sigma) and two disks containing 2.5 and 10 μg, respectively, of cerulenin (Sigma) were used as positive controls. A disk containing only DMSO served as the negative control. The plates were incubated at 37° C. for 24 hours and the zone of growth inhibition about each disk was visually examined and measured. Compound A and compound B typically produced clear zones of 8-12 mm diameter. Amphotericin B typically produced a clear zone of 8-10 mm diameter. Cerulenin typically produced a hazy zone of 20-25 mm diameter. A clear zone is indicative of fungicidal activity, while a hazy zone is indicative of fungistatic activity.
# [1] = system: C. albicans strain ATCC 10231; assay: Murine systemic model of candidiasis; assay type: in vivo, mice; settings: for Deaths Each Day Post Inoculation: 10 mg/kg IP
# Description: In vivo activity was determined using a murine systemic model of candidiasis. Groups of 5 to 10 mice were inoculated IV with 1-2×10^7 cells of C. albicans strain ATCC 10231 (10 times the lethal dose). One hour after inoculation, the candidate antifungal compounds were delivered IP. 10 mg/kg of compound A was injected into each mouse of the compound A treatment group. Two separate treatment groups received 30 and 100 mg/kg, respectively, of compound B. Amphotericin B was injected into a positive control treatment group at 10 mg/kg. All compounds were delivered in phosphate-buffered saline (PBS) and one treatment group received PBS. Twice daily thereafter the mice were observed, the number of dead mice recorded, and the dead mice removed. After nine days, the total mortality over the period was determined.
# Using the same methodology, it was determined that the maximal tolerated dose in these mice (i.e., the maximum dose that caused no deaths within 72 hours following IP administration) of compound B was in excess of 200 mg/kg. The mice treated with 2108B or Amphotericin B injected IP in […] of phosphate buffered saline, pH 7.4 had the following treatment profiles: […]
# FAS = biological target: T1, FAS (Candida albicans, UniProt P43098); assay: FAS activity in extracts of treated C. albicans cultures (Example 10); assay type: cell-based
# T1 construct: endogenous in cells; host or cells: Candida albicans strain 4918
# T1 sequence (P43098 whole entry): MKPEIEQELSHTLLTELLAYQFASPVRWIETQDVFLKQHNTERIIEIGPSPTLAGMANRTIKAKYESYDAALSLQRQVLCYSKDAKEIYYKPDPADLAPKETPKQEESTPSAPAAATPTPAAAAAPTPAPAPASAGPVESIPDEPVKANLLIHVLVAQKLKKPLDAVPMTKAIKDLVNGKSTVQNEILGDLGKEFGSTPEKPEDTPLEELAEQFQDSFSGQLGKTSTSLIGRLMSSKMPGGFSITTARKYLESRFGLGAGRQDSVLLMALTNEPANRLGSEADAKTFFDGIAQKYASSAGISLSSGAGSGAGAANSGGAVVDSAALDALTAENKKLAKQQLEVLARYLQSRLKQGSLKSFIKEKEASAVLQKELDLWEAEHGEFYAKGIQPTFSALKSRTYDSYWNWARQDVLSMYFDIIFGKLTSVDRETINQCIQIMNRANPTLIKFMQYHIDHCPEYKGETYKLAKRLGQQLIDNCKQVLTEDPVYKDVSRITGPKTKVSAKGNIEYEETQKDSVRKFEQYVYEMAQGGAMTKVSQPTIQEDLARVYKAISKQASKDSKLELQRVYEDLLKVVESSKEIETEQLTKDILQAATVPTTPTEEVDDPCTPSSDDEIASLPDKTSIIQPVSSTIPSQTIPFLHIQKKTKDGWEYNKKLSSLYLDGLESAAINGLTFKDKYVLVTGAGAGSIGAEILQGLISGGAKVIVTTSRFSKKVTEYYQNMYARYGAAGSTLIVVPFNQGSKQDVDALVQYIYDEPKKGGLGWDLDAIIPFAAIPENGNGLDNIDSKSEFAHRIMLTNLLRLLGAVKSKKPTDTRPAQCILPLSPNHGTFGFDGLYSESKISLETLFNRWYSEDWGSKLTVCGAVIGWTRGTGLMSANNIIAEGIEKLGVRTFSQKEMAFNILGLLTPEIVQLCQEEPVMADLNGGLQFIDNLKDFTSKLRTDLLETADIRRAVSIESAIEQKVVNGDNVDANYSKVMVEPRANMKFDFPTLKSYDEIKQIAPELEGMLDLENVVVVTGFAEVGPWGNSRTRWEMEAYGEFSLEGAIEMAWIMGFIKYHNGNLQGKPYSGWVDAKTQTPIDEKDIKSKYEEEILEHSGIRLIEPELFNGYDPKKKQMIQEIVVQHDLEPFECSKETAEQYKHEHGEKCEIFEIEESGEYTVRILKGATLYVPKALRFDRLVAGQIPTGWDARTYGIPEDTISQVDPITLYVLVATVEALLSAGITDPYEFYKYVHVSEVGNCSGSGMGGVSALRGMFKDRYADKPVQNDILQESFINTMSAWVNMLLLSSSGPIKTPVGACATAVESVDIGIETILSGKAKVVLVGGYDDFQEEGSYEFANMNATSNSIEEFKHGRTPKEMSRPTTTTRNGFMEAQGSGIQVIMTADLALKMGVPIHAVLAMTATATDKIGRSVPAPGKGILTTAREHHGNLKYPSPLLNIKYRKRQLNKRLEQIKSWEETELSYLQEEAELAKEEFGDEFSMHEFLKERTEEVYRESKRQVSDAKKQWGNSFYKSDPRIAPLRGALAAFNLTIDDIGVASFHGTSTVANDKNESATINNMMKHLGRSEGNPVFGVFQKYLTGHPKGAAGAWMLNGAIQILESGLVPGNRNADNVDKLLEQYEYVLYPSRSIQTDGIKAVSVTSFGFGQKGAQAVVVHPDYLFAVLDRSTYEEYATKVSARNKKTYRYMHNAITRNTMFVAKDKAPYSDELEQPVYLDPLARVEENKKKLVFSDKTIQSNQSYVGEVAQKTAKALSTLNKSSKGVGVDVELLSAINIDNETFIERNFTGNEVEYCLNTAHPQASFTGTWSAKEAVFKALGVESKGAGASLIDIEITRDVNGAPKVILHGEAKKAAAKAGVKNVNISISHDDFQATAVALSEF
# T1 sequence (P34731 whole entry partner): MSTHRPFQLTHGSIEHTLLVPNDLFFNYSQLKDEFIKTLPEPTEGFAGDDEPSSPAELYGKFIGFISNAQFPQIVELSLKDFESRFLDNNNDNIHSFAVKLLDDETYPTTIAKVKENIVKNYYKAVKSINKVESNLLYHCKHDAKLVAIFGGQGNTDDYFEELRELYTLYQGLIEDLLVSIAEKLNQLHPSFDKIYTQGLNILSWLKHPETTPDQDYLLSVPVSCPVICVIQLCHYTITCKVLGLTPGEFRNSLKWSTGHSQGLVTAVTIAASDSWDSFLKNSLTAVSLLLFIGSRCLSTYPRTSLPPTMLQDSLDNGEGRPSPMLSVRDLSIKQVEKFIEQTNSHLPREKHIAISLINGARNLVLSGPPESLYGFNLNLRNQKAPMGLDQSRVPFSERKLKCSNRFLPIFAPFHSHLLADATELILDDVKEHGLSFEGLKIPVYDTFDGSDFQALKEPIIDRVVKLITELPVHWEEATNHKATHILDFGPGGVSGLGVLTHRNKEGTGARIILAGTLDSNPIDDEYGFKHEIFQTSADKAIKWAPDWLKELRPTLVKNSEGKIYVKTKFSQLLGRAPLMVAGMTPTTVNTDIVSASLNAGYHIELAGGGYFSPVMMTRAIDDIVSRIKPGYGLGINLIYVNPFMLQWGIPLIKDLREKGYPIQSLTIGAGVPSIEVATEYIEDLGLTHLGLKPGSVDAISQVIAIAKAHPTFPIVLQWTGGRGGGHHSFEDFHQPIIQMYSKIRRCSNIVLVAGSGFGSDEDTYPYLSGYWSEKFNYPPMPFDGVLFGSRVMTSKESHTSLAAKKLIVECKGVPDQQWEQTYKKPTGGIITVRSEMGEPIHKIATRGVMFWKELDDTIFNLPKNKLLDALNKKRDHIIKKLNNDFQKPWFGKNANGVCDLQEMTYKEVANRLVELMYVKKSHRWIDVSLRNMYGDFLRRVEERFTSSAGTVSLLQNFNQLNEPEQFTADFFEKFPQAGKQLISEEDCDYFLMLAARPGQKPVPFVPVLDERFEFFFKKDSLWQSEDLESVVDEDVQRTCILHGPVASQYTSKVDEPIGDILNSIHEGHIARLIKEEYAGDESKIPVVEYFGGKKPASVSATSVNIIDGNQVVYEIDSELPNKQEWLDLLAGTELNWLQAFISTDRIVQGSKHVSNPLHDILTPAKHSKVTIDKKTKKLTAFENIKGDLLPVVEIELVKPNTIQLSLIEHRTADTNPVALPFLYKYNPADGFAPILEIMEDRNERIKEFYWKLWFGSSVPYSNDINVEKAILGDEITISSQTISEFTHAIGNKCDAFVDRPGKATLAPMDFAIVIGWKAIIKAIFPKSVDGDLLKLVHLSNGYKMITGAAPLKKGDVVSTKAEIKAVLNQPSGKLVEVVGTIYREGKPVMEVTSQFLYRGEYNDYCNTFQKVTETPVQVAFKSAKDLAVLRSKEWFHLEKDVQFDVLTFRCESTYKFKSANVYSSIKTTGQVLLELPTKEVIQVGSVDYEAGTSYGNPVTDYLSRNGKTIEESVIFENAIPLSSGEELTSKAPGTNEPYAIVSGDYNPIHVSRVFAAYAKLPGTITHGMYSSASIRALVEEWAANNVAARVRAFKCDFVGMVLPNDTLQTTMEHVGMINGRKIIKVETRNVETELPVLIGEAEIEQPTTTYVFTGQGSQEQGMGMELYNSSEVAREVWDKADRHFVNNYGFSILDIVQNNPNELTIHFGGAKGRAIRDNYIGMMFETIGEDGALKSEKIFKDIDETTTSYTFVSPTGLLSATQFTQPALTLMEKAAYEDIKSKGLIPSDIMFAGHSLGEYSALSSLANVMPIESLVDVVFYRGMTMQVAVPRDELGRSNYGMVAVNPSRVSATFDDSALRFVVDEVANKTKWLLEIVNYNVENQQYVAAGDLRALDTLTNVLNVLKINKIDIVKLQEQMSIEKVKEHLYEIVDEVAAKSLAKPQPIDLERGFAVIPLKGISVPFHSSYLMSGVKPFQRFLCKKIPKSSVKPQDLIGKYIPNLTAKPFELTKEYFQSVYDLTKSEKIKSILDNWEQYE
# Description: C. Albicans strain 4918 (available from Dr. Ronald Cihlar, Georgetown University Medical Center, Washington, D.C.) was grown in minimal medium (M63 media available from Difco, Detroit, Mich.) at 37° C. to mid-log phase. 10 μg/ml cerulenin and 25 μg/ml of compound B were added to separate cultures. At 15 minute intervals, 20 ml samples were removed and extracts prepared by mechanical extraction as in Example 1C, except that the ammonium sulfate precipitation step was not applied. The extract was diluted to 1 ml to form a solution containing 0.4M potassium phosphate, pH 7.3, 0.125 μM dithiothreitol, 50 μM acetyl-CoA, 100 μM NADPH. After incubation at 37° C. for 5 minutes, 100 μM malonyl-CoA containing 0.5 μCi [2-^14 C]-malonyl-CoA (Amersham, Arlington Heights, Ill.). After 10 minutes at 37° C., the fatty acid synthesis reaction was terminated by adding 30 μl of 60% perchloric acid (v/v) and 1 ml ethanol. Four volumes of pet. ether were added to each reaction incubation to extract the fatty acids. The relative incorporation of malonyl-CoA into fatty acids was determined by liquid scintillation counting.
# FAS from S. cereviseae = biological target: T2, FAS from S. cereviseae (Saccharomyces cerevisiae, UniProt P07149+P19097); assay: FAS inhibition assay (Example 1C); assay type: biochemical, Saccharomyces cerviseae; settings: result in words
# T2 construct: an FAS extract from Saccharomyces cerviseae was prepared; (the yeast cells); host or cells: Fleishmans' freeze dried yeast (Saccharomyces cerevisiae); lysate, 50% ammonium sulfate precipitate, dialyzed
# Description: To test the compounds for FAS inhibitory activity, an FAS extract from Saccharomyces cerviseae was prepared. Freeze dried yeast (Fleishmans' freeze dried yeast, Specialty Brands, San Francisco, Calif.) 1 g, was hydrated in 5 mls deionized water for 15 minutes at 4° C. Subsequent extraction steps were conducted at a temperature between 4° C. and 10° C., except that in the cell lysis step the temperature may have briefly exceeded these boundaries. The cells were pelleted by centrifugation; the pelleted volume was measured; and the cells were resuspended in 5 vol. (5 mls per ml cell volume) extraction buffer [125 mM KH2PO4, pH 6.6, 1 mM EDTA, 1 mM DTT, 0.7 μg/ml pepstatin (Boehringer Mannheim, Indianapolis, Ind.), 0.2 μg/ml aprotinin (Boehringer Mannheim, Indianapolis, Ind.), 0.2 μg/ml leupeptin (Boehringer Mannheim, Indianapolis, Ind.)]. The cells were again pelleted and resuspended in 2 vol. extraction buffer. […]
# 105 μl of FAS extract was placed in each well of a polypropylene 96 well plate (Costar Corp. Cambridge, Mass.) and multiple 5 μl dilutions of compound A, compound B or negative control solution were introduced into each of the wells. […] The relative initial reaction rates in each well were measured by measuring the decrease in optical density at 340 nm using a UV Max microtiter plate reader (Molecular Devices, Sunnyvalle, Calif.).
# [2] = system: Candida albicans (strains ATCC 10231 and ATCC 10261); assay: Disk diffusion assay, Candida albicans; assay type: cell-based
# Description: as §1
# [3] = system: Fusarium acuminatum (strains ATCC 32965 and ATCC 32966); assay: Disk diffusion assay, Fusarium acuminatum; assay type: cell-based
# Description: as §1
# [4] = system: Candida Albicans strain B311A; assay: MIC assay (Example 1B); assay type: cell-based; settings: purification fractions, result in words
# Description: The fractions from the purification were tested for antifungal activity against C. albicans (strain B311A available from Dr. Paul Actor, Temple University and strains ATCC Nos. 10231 and 10261) and C. tropicalis (strain 13803). Fungi were grown in 1× yeast nitrogen broth ("YNB") medium (BBL, Cockeysville, Md.) containing 15 μg/ml aspargine and 100 μg/ml kanamycin. Prior to the assay for antifungal activity, the fungus to be tested for susceptibility was grown overnight from a single colony in 5 ml of medium at 30° C. This overnight culture was diluted 1:10 with fresh medium and grown at 37° C. for 4 hours. A volume of 5 μl of extracts, dissolved in DMSO, was added to each separate well in a series of 96-well plates. 4,000 fungal cells were then added to each plate in 95 μl of medium. The optical densities of the wells were measured and the plates incubated at 37° C. The optical densities were again measured after 24 and 48 hours. Minimum inhibitory concentrations ("MICs") for the extracts were determined using this procedure wherein the extracts were serially diluted in medium prior to mixing with the 4,000 fungal cells.
# Using the procedure described in the previous paragraph, it was determined that the MICs for compound A and compound B against Candida Albicans strain B311A grown in YNB medium were 25 μg/ml and 6.25 μg/ml, respectively. […]
# [5] = system: Candida tropicalis (strain ATCC 13803); assay: Disk diffusion assay, Candida tropicalis; assay type: cell-based
# Description: as §1
# [6] = 0.5 h, read-out: Percent Remaining FAS Activity
SMILES,"zone appearance (clear = fungicidal, hazy = fungistatic) (Fungal cells)",zone of growth inhibition diameter (Fungal cells),activity in the enzyme inhibition assay of Example 1C (FAS from S. cereviseae),zone of inhibition at 100 µg/disc (Fungal cells),antimicrobial activity [2],antimicrobial activity [3],activity in the MIC assay of Example 1B [4],antimicrobial activity [5],also measured
C[C@@H]1[C@H](O)[C@@H](C)/C=C/C=C/C=C/C=C/C=C/C=C/C=C/[C@H](O[C@@H]2O[C@H](C)[C@@H](O)[C@H](N)[C@@H]2O)C[C@@H]2O[C@](O)(C[C@@H](O)C[C@@H](O)[C@H](O)CC[C@@H](O)C[C@@H](O)CC(=O)O[C@H]1C)C[C@H](O)[C@H]2C(=O)O [Amphotericin B],clear zone,8-10 mm,–,–,–,–,–,–,"% Survival ([1]; 10 mg/kg IP one hour after inoculation, nine days): 80%; Deaths Each Day Post Inoculation ([1]; day 0): 0; Deaths Each Day Post Inoculation ([1]; day 1): 0; Deaths Each Day Post Inoculation ([1]; day 3): 0; Deaths Each Day Post Inoculation ([1]; day 5): 0; Deaths Each Day Post Inoculation ([1]; day 6): 0; Deaths Each Day Post Inoculation ([1]; day 7): 0; Deaths Each Day Post Inoculation ([1]; day 8): 0; Deaths Each Day Post Inoculation ([1]; day 9): 0"
"C/C=C/C/C=C/CCC(=O)[C@H]1O[C@H]1C(N)=O [Cerulenin, cerulenin]",hazy zone,20-25 mm,–,–,–,–,–,–,"remaining activity at 10 µg/mL (FAS; 0.25 h, read-out: Percent Remaining FAS Activity): 20%; remaining activity at 10 µg/mL (FAS; [6]): 12%"
C/C=C/C=C/C=C/C1=CC2=CC(=O)C(C)(OC(=O)CC(C)O)C(=O)C2=CO1 (centres unmarked) [Compound B],clear zones,–,not directly inhibitory of FAS,8 to 12 mm,had antimicrobial activity,had antimicrobial activity,retained activity,had antimicrobial activity,FAS activity of cell extracts made after exposure (FAS): markedly reduced FAS activity; remaining activity at 25 µg/mL (FAS; [6]): 40%
C/C=C/C=C/C=C/C1=CC2=CC(=O)C(C)(OC(=O)CC(C)O)C(=O)C23OC3O1 (centres unmarked) [Compound A],clear zones,–,retained activity,8 to 12 mm,had antimicrobial activity,had antimicrobial activity,retained activity,had antimicrobial activity,–
C/C=C/C=C/C=C/C1=CC2=CC(=O)C(C)(OC(=O)CC(O)CC(C)O)C(=O)C23OC3O1 (centres unmarked) [patulodin],–,–,–,7 mm,–,–,–,–,–
